From US9695154B2, “Heteroaryl inhibitors of sumo activating enzyme” (MILLENNIUM PHARMACEUTICALS, INC., priority 2013, dated 2017) come the findings set out here.

The target in this assay is T1, recombinant human SAE enzyme (Homo sapiens, UniProt Q9UBT2).
T1 sequence (Q9UBT2 1-640): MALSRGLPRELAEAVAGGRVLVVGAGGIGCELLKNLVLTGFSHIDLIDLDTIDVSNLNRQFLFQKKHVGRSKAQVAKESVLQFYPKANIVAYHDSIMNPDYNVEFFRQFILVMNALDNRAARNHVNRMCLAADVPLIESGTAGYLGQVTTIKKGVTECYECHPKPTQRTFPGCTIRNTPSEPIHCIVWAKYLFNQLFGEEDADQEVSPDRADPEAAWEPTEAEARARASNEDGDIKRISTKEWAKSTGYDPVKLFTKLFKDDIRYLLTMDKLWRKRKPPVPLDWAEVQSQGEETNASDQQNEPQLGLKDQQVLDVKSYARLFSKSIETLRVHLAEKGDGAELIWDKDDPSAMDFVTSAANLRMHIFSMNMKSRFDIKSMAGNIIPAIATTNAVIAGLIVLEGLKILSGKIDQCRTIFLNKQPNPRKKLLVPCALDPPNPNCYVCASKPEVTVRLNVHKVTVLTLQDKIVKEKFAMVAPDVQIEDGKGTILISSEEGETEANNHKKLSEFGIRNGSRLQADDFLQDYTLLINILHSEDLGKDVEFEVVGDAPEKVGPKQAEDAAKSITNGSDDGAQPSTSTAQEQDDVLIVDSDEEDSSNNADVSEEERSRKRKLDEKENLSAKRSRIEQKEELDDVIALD
T1 sequence (Q9UBE0 1-346 partner): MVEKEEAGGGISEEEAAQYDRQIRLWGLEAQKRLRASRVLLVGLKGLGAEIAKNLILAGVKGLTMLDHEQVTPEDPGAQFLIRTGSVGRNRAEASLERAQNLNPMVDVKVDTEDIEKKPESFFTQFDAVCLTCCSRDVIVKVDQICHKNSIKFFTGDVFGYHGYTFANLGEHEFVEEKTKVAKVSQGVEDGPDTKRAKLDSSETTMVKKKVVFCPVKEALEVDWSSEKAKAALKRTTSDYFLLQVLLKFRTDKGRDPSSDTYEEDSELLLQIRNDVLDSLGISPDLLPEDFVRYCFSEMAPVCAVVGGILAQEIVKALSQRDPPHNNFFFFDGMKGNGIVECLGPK
The assay can be described thus: SAE HTRF Enzyme Assay. It is filed as biochemical. The settings on record: for IC50: class symbols A-C; for inhibition at 0.111 µM: read-out: Percent Inhibition. In outline:
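Reaction with 0.11 nM recombinant human SAE, 0.5 μM ATP, 0.01 μM Ubc9-GST, 0.125 μM Sumo-Flag in HEPES pH 7.5, MgCl2, GSH, BSA, 105 min at 24 °C. Stopped with EDTA/KF buffer carrying Eu-anti-Flag and anti-GST-APC; HTRF read after 2 h; % inhibition or IC50.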

Where [1] appears, read: compound concentration 0.111 μM.

The structures appear in SMILES notation. Where a name gives a salt, the structure may show the parent alone.

Turning to `Cc1cccc(Cn2ccc(C(=O)c3cncnc3N[C@@H]3C[C@H](COS(N)(=O)=O)[C@@H](O)C3)n2)n1` [Compound I-298, [(1R,2S,4R)-2-hydroxy-4-{[5-({1-[(6-methylpyridin-2-yl)methyl]-1H-pyrazol-3-yl}carbonyl)pyrimidin-4-yl]amino}cyclopentyl]methyl sulfamate], the IC50 is below 10 nM. The inhibition at 0.111 µM under setting [1] stood at 97%.
Regarding `CC1(C)CCC(Cn2ccc(C(=O)c3cncnc3N[C@@H]3C[C@H](COS(N)(=O)=O)[C@@H](O)C3)n2)O1` (mixture of isomers) [Compound I-77, [(1R,2S,4R)-4-({5-[(1-{[(2R)-5,5-dimethyltetrahydrofuran-2-yl]methyl}-1H-pyrazol-3-yl)carbonyl]pyrimidin-4-yl}amino)-2-hydroxycyclopentyl]methyl sulfamate and [(1R,2S,4R)-4-({5-[(1-{[(2S)-5,5-dimethyltetrahydrofuran-2-yl]methyl}-1H-pyrazol-3-yl)carbonyl]pyrimidin-4-yl}amino)-2-hydroxycyclopentyl]methyl sulfamate], the IC50 fell in the range of 100 to 1000 nM. Further, the inhibition at 0.111 µM under setting [1] was found to be 51%.
Taken in the same sequence, the figures for `C=CC(=O)Nc1cccc(Cn2ccc(C(=O)c3cncnc3N[C@@H]3C[C@H](COS(N)(=O)=O)[C@@H](O)[C@H]3O)n2)c1` [Compound I-313, [(1R,2R,3S,4R)-4-{[5-({1-[3-(Acryloylamino)benzyl]-1H-pyrazol-3-yl}carbonyl)pyrimidin-4-yl]amino}-2,3-dihydroxycyclopentyl]methyl sulfamate] were below 10 nM and 95%.
As for `NS(=O)(=O)OC[C@H]1C[C@@H](Nc2ncncc2C(=O)c2ccn(CC3CCCCC3)n2)[C@H](O)[C@@H]1O` [Compound I-82, {(1R,2R,3S,4R)-4-[(5-{[1-(cyclohexylmethyl)-1H-pyrazol-3-yl]carbonyl}pyrimidin-4-yl)amino]-2,3-dihydroxycyclopentyl}methyl sulfamate], the IC50 was below 10 nM. For the same compound, the inhibition at 0.111 µM under setting [1] worked out at 96%.
For the compound `NS(=O)(=O)OC[C@H]1C[C@@H](Nc2ncncc2C(=O)c2ccn(Cc3cccc(Cl)c3)n2)[C@H](O)[C@@H]1O` [Compound I-40, {(1R,2R,3S,4R)-4-[(5-{[1-(3-Chlorobenzyl)-1H-pyrazol-3-yl]carbonyl}pyrimidin-4-yl)amino]-2,3-dihydroxycyclopentyl}methyl sulfamate], the IC50 was below 10 nM. For the same compound, the inhibition at 0.111 µM under setting [1] came out at 97%.
With `NS(=O)(=O)OC[C@H]1C[C@@H](Nc2ncncc2C(=O)c2ccn(Cc3cccc(Br)c3F)n2)[C@@H](F)[C@@H]1O` [Compound I-177, ((1R,2R,3R,4R)-4-((5-(1-(3-Bromo-2-fluorobenzyl)-1H-pyrazole-3 carbonyl)pyrimidin-4-yl)amino)-3-fluoro-2-hydroxycyclopentyl)methyl sulfamate], the IC50 was below 10 nM. Also, the inhibition at 0.111 µM under setting [1] was 99%.
As for `NS(=O)(=O)OC[C@H]1C[C@@H](Nc2ncncc2C(=O)c2cc(Cl)n(Cc3cc(C(F)(F)F)on3)c2)[C@@H](F)[C@@H]1O` [Compound I-148, [(1R,2R,3R,4R)-4-({5-[(5-chloro-1-{[5-(trifluoromethyl)isoxazol-3-yl]methyl}-1H-pyrrol-3-yl)carbonyl]pyrimidin-4-yl}amino)-3-fluoro-2-hydroxycyclopentyl]methyl sulfamate], the IC50 lay in the range of 10 to 100 nM. Also, under setting [1], the inhibition at 0.111 µM was 85%.
Regarding `NS(=O)(=O)OC[C@H]1C[C@@H](Nc2ncncc2C(=O)c2ccn(Cc3ccc(Cl)cc3F)n2)[C@H](O)[C@@H]1O` [Compound I-146, {(1R,2R,3S,4R)-4-[(5-{[1-(4-chloro-2-fluorobenzyl)-1H-pyrazol-3-yl]carbonyl}pyrimidin-4-yl)amino]-2,3-dihydroxycyclopentyl}methyl sulfamate], the IC50 is below 10 nM. The inhibition at 0.111 µM under setting [1] is 99%.
Regarding `NS(=O)(=O)OC[C@H]1C[C@@H](Nc2ncnc(Cl)c2C(=O)c2ccn(Cc3cccc(Cl)c3)n2)C[C@@H]1O` [Compound I-54, {(1R,2S,4R)-4-[(6-Chloro-5-{[1-(3-chlorobenzyl)-1H-pyrazol-3-yl]carbonyl}pyrimidin-4-yl)amino]-2-hydroxycyclopentyl}methyl sulfamate], the IC50 fell in the range of 10 to 100 nM. For the same compound, the inhibition at 0.111 µM under setting [1] worked out at 63%.
In the case of `NS(=O)(=O)OC[C@H]1C[C@@H](Nc2ncncc2C(=O)c2ccn(Cc3c(F)cc(F)cc3F)n2)[C@H](O)[C@@H]1O` [Compound I-88, {(1R,2R,3S,4R)-2,3-dihydroxy-4-[(5-{[1-(2,4,6-trifluorobenzyl)-1H-pyrazol-3-yl]carbonyl}pyrimidin-4-yl)amino]cyclopentyl}methyl sulfamate], the IC50 is below 10 nM. In addition, the inhibition at 0.111 µM under setting [1] is above 99%.
In the case of `CC(C)(O)c1cc(C(=O)c2cncnc2N[C@@H]2C[C@H](COS(N)(=O)=O)[C@@H](O)C2)nn1Cc1cccc(Br)c1` [Compound I-367, {(1R,2S,4R)-4-[(5-{[1-(3-bromobenzyl)-5-(2-hydroxypropan-2-yl)-1H-pyrazol-3-yl]carbonyl}pyrimidin-4-yl)amino]-2-hydroxycyclopentyl}methyl sulfamate], the IC50 was below 10 nM. Under setting [1], the inhibition at 0.111 µM was determined as 99%.
As to `CC(c1ccc(C(F)(F)F)o1)n1ccc(C(=O)c2cncnc2N[C@@H]2C[C@H](COS(N)(=O)=O)[C@@H](O)[C@@H]2F)c1` (single isomer, unassigned) [Compound I-357, [(1R,2R,3R,4R)-3-fluoro-2-hydroxy-4-({5-[(1-{(1S)-1-[5-(trifluoromethyl)-2-furyl]ethyl}-1H-pyrrol-3-yl)carbonyl]pyrimidin-4-yl}amino)cyclopentyl]methyl sulfamate or [(1R,2R,3R,4R)-3-fluoro-2-hydroxy-4-({5-[(1-{(1R)-1-[5-(trifluoromethyl)-2-furyl]ethyl}-1H-pyrrol-3-yl)carbonyl]pyrimidin-4-yl}amino)cyclopentyl]methyl sulfamate], the IC50 is below 10 nM. Further, the “Percent Inhibition” value (compound concentration 0.111 μM, 0.111 µM) is recorded as 100%.
Turning to `COc1cccc(Cn2ccc(C(=O)c3cncnc3N[C@@H]3C[C@H](COS(N)(=O)=O)[C@@H](O)C3)n2)n1` [Compound I-295, [(1R,2S,4R)-2-hydroxy-4-{[5-({1-[(6-methoxypyridin-2-yl)methyl]-1H-pyrazol-3-yl}carbonyl)pyrimidin-4-yl]amino}cyclopentyl]methyl sulfamate], the IC50 was below 10 nM. Further, under setting [1], the inhibition at 0.111 µM stood at 96%.
Taken in the same sequence, the figures for `NS(=O)(=O)OC[C@H]1C[C@@H](Nc2ncncc2C(=O)c2ccn(Cc3cnc(C(F)(F)F)s3)c2)C[C@@H]1O` [Compound I-73, [(1R,2S,4R)-2-hydroxy-4-({5-[(1-{[2-(trifluoromethyl)-1,3-thiazol-5-yl]methyl}-1H-pyrrol-3-yl)carbonyl]pyrimidin-4-yl}amino)cyclopentyl]methyl sulfamate] were below 10 nM and 94%.
For the compound `NS(=O)(=O)OC[C@H]1C[C@@H](Nc2ccncc2C(=O)c2ccn(Cc3cccc(Cl)c3)c2)C[C@@H]1O` [Compound I-201, {(1R,2S,4R)-4-[(3-{[1-(3-chlorobenzyl)-1H-pyrrol-3-yl]carbonyl}pyridin-4-yl)amino]-2-hydroxycyclopentyl}methyl sulfamate], the IC50 is below 10 nM. Moreover, the inhibition at 0.111 µM under setting [1] was determined as 98%.
Consider `NS(=O)(=O)OC[C@H]1C[C@@H](Nc2ncncc2C(=O)c2ccn(Cc3ccc(F)c(F)c3)n2)C[C@@H]1O` [Compound I-212, {(1R,2S,4R)-4-[(5-{[1-(3,4-difluorobenzyl)-1H-pyrazol-3-yl]carbonyl}pyrimidin-4-yl)amino]-2-hydroxycyclopentyl}methyl sulfamate], for which the IC50 is below 10 nM. Also, the inhibition at 0.111 µM under setting [1] is 95%.
Taken in the same sequence, the figures for `N[C@@H]1[C@H](O)[C@@H](COS(N)(=O)=O)C[C@H]1Nc1ncncc1C(=O)c1ccn(Cc2cccc(Br)c2)n1` [Compound I-370, {(1R,2R,3S,4R)-3-amino-4-[(5-{[1-(3-bromobenzyl)-1H-pyrazol-3-yl]carbonyl}pyrimidin-4-yl)amino]-2-hydroxycyclopentyl}methyl sulfamate.2[HCl]] were 10 to 100 nM and 78%.
